This is an account of results in patent publication US5843889A, “Glycopeptide antibiotic derivatives” (Eli Lilly and Company, priority 1997, dated 1998).

Holding throughout (assay type): cell-based
The subject of assay [1] is Entercoccus gallinarum 245. The assay is described as follows: MIC, standard broth micro-dilution assay. Here is the method: (§1) The formula I compounds have in vitro and in vivo activity against Gram-positive pathogenic bacteria. The MIC's were determined using a standard broth micro-dilution assay.
Another assay has as its system Entercoccus faecalis 276. Kind of assay: MIC, standard broth micro-dilution assay. Here is the method: as §1
Assay [2] relates to Streptococcus pyogenes C203. The assay is described as follows: MIC, standard broth micro-dilution assay. The procedure:
(§2) The MIC's were determined using a standard broth micro-dilution assay.

The test system of assay [3] is Entercoccus faecalis 2041. Kind of assay: MIC, standard broth micro-dilution assay. The procedure: as §1
In another assay the test system is Pediococcus pentosaceus. The assay is described as follows: MIC, agar dilution on brain-heart infusion agar. To be noted: Pediococcus pentosaceus (mean of 2).
The subject of assay [4] is Leuconostoc mesenteroides. The assay is described as follows: MIC, agar dilution on brain-heart infusion agar. To be noted: Leuconostoc mesenteroides (mean of 4).
For the next assay, the system named is Lactobacillus confusus. The assay is described as follows: MIC, agar dilution on brain-heart infusion agar.
The test system of the next assay is Leuconostoc lactis. The assay is described as follows: MIC, agar dilution on brain-heart infusion agar. To be noted: Leuconostoc lactis (mean of 2).
The test system of assay [5] is Leuconostoc pseudomesenteroides. The assay is described as follows: MIC, agar dilution on brain-heart infusion agar.
In the next assay the test system is Pedicoccus acidilacti. The assay is described as follows: MIC, agar dilution on brain-heart infusion agar. To be noted: Pedioccccus acidilacti (mean of 10).
The test system of the next assay is Leuconostoc citreum. The assay is described as follows: MIC, agar dilution on brain-heart infusion agar.
Assay [6] deals with Staphylococcus aureus S13E. Here is the method: as §2
In assay [7] the test system is Staphylococcus aureus SA1199B. The procedure: as §2
The test system of assay [8] is Staphylococcus haemolyticus 105. Kind of assay: MIC, standard broth micro-dilution assay. The procedure: as §2
Assay [9] deals with Staphylococcus epidermidis 270. Kind of assay: MIC, standard broth micro-dilution assay. The procedure: as §2
In assay [10] the test system is Staphylococcus aureus 446. Kind of assay: MIC, standard broth micro-dilution assay. The procedure:
as §2

Assay [11] concerns Entercoccus faecium 180-1. Kind of assay: MIC, standard broth micro-dilution assay. Here is the method: as §2
Assay [12] relates to Staphylococcus aureus SA1199. Kind of assay: MIC, standard broth micro-dilution assay. The procedure:
as §2

In assay [13] the test system is Staphylococcus haemolyticus 415. The assay is described as follows: MIC, standard broth micro-dilution assay. Here is the method: as §2
The subject of assay [14] is Staphylococcus aureus 447. The assay is described as follows: MIC, standard broth micro-dilution assay. The procedure: as §2
Assay [15] relates to Staphylococcus aureus 491. Kind of assay: MIC, standard broth micro-dilution assay. The procedure: as §2
In another assay the test system is Entercoccus faecium 180. Kind of assay: MIC, standard broth micro-dilution assay. Here is the method: as §2
Assay [16] concerns Staphylococcus aureus X778. Kind of assay: MIC, standard broth micro-dilution assay. Here is the method:
as §2

For the next assay, the system named is Escherichia coli EC14. The assay is described as follows: MIC, standard broth micro-dilution assay. The procedure:
as §2

Assay [17] relates to Staphylococcus aureus X400. Kind of assay: MIC, standard broth micro-dilution assay. The procedure:
as §2

Assay [18] deals with Staphylococcus aureus 489. Kind of assay: MIC, standard broth micro-dilution assay. The procedure:
as §2

In assay [19] the test system is Staphylococcus aureus SA1199A. The assay is described as follows: MIC, standard broth micro-dilution assay. Here is the method: as §2
Assay [20] has as its system Streptococcus pneumoniae P1. The assay is described as follows: MIC, standard broth micro-dilution assay. Here is the method: as §2

Values after ≈ are worked out from the molar mass of the structure shown. Where only a bound is given, the exact number is not on record here.

`CCCCCCCCCCCCOc1ccc(CNC2(C)CC(OC3C(Oc4c5cc6cc4Oc4ccc(cc4Cl)C(OC4CC(C)(N)C(O)C(C)O4)C4NC(=O)C(NC(=O)C6NC(=O)C(CC(N)=O)NC(=O)C(NC(=O)C(CC(C)C)NC)C(O)c6ccc(c(Cl)c6)O5)c5ccc(O)c(c5)-c5c(O)cc(O)cc5C(C(=O)O)NC4=O)OC(CO)C(O)C3O)OC(C)C2O)cc1` (centres unmarked) [Compound 10, 4-dodecyloxybenzyl]: the MIC is 8 µg/mL (≈ 4.29 µM) in assay [1], 18 µg/mL (≈ 9.64 µM) with Entercoccus faecalis 276 and 0.5 µg/mL (≈ 0.268 µM) in [2].
With `CNC(CC(C)C)C(=O)NC1C(=O)NC(CC(N)=O)C(=O)NC2C(=O)NC3C(=O)NC(C(=O)NC(C(=O)O)c4cc(O)cc(O)c4-c4cc3ccc4O)C(OC3CC(C)(N)C(O)C(C)O3)c3ccc(c(Cl)c3)Oc3cc2cc(c3OC2OC(CO)C(O)C(O)C2OC2CC(C)(NCc3ccc(C=Cc4ccccc4)cc3)C(O)C(C)O2)Oc2ccc(cc2Cl)C1O` (centres unmarked) [Compound 29, 4-stilbenzyl], the MIC in assay [3] turned out to be 0.25 µg/mL (≈ 0.14 µM); in assay [1], 0.25 µg/mL (≈ 0.14 µM); against Entercoccus faecalis 276, 0.25 µg/mL (≈ 0.14 µM); with Pediococcus pentosaceus, 8.0 µg/mL (≈ 4.48 µM); in assay [4], 6.7 µg/mL (≈ 3.75 µM); against Lactobacillus confusus, 8 µg/mL (≈ 4.48 µM). Moreover, the MIC against Leuconostoc lactis was 5.7 µg/mL (≈ 3.19 µM); in assay [5], 16 µg/mL (≈ 8.97 µM); against Pedicoccus acidilacti it was 4.0 µg/mL (≈ 2.24 µM); with Leuconostoc citreum it was 32 µg/mL (≈ 17.9 µM).
In the case of `CNC(CC(C)C)C(=O)NC1C(=O)NC(CC(N)=O)C(=O)NC2C(=O)NC3C(=O)NC(C(=O)NC(C(=O)O)c4cc(O)cc(O)c4-c4cc3ccc4O)C(OC3CC(C)(N)C(O)C(C)O3)c3ccc(c(Cl)c3)Oc3cc2cc(c3OC2OC(CO)C(O)C(O)C2OC2CC(C)(NCc3ccc(OCc4ccccc4)cc3)C(O)C(C)O2)Oc2ccc(cc2Cl)C1O` (centres unmarked) [Compound 5, 4-benzyloxybenzyl], the minimal inhibitory concentration (MIC) was at most 0.06 µg/mL in assay [3]; at most 0.06 µg/mL in assay [1]; at most 0.06 µg/mL against Entercoccus faecalis 276; 8.0 µg/mL (≈ 4.47 µM) against Pediococcus pentosaceus; 8 µg/mL (≈ 4.47 µM) in assay [4]; 16 µg/mL (≈ 8.95 µM) in the assay on Lactobacillus confusus. In addition, the MIC in the assay with Leuconostoc lactis came to 8.0 µg/mL (≈ 4.47 µM); in [5] it was 16 µg/mL (≈ 8.95 µM); against Pedicoccus acidilacti it was 2.8 µg/mL (≈ 1.57 µM); in the assay with Leuconostoc citreum it was 64 µg/mL (≈ 35.8 µM).
Regarding `CNC(CC(C)C)C(=O)NC1C(=O)NC(CC(N)=O)C(=O)NC2C(=O)NC3C(=O)NC(C(=O)NC(C(=O)O)c4cc(O)cc(O)c4-c4cc3ccc4O)C(OC3CC(C)(N)C(O)C(C)O3)c3ccc(c(Cl)c3)Oc3cc2cc(c3OC2OC(CO)C(O)C(O)C2OC2CC(C)(NCc3ccc(-c4ccc(-c5ccccc5)cc4)cc3)C(O)C(C)O2)Oc2ccc(cc2Cl)C1O` (centres unmarked) [Compound 36, 4-[4-biphenyl]benzyl], the MIC in assay [3] came to 1 µg/mL (≈ 0.545 µM); in [1], 0.25 µg/mL (≈ 0.136 µM); with Entercoccus faecalis 276 it was 2 µg/mL (≈ 1.09 µM); in the assay with Pediococcus pentosaceus it was 16 µg/mL (≈ 8.72 µM); in assay [4], 16 µg/mL (≈ 8.72 µM); in the assay with Lactobacillus confusus, 32 µg/mL (≈ 17.4 µM). The MIC was 16 µg/mL (≈ 8.72 µM) against Leuconostoc lactis, 32 µg/mL (≈ 17.4 µM) in assay [5], 9.2 µg/mL (≈ 5.01 µM) in the assay on Pedicoccus acidilacti and 32 µg/mL (≈ 17.4 µM) against Leuconostoc citreum.
On to `CNC(CC(C)C)C(=O)NC1C(=O)NC(CC(N)=O)C(=O)NC2C(=O)NC3C(=O)NC(C(=O)NC(C(=O)O)c4cc(O)cc(O)c4-c4cc3ccc4O)C(OC3CC(C)(N)C(O)C(C)O3)c3ccc(c(Cl)c3)Oc3cc2cc(c3OC2OC(CO)C(O)C(O)C2OC2CC(C)(NCC(C)=Cc3ccc(C(C)(C)C)cc3)C(O)C(C)O2)Oc2ccc(cc2Cl)C1O` (centres unmarked) [Compound 42, 2,3-[2-methyl-3-[4-t-butylphenyl]]propenyl], for which the MIC is 0.125 µg/mL (≈ 0.0703 µM) in [3]; 1 µg/mL (≈ 0.562 µM) in assay [1]; 8 µg/mL (≈ 4.5 µM) against Entercoccus faecalis 276; 0.5 µg/mL (≈ 0.281 µM) in [6]; 2 µg/mL (≈ 1.12 µM) in assay [7]; 2 µg/mL (≈ 1.12 µM) in [8]. Moreover, the MIC in assay [9] is 0.5 µg/mL (≈ 0.281 µM); in [10] it was 1 µg/mL (≈ 0.562 µM); in [11], at most 0.06 µg/mL; in assay [12], 1 µg/mL (≈ 0.562 µM); in [13] it was 1 µg/mL (≈ 0.562 µM); in assay [14] it was 0.5 µg/mL (≈ 0.281 µM). The MIC was 0.5 µg/mL (≈ 0.281 µM) in assay [15]; 0.25 µg/mL (≈ 0.141 µM) against Entercoccus faecium 180; 1 µg/mL (≈ 0.562 µM) in assay [16]; above 64 µg/mL in the assay with Escherichia coli EC14; 1 µg/mL (≈ 0.562 µM) in [17]; 0.5 µg/mL (≈ 0.281 µM) in assay [18]. In addition, the MIC in assay [19], in assay [20] and in assay [2] was at most 0.06 µg/mL throughout.
`CCCCCOc1ccc(-c2ccc(CNC3(C)CC(OC4C(Oc5c6cc7cc5Oc5ccc(cc5Cl)C(OC5CC(C)(N)C(O)C(C)O5)C5NC(=O)C(NC(=O)C7NC(=O)C(CC(N)=O)NC(=O)C(NC(=O)C(CC(C)C)NC)C(O)c7ccc(c(Cl)c7)O6)c6ccc(O)c(c6)-c6c(O)cc(O)cc6C(C(=O)O)NC5=O)OC(CO)C(O)C4O)OC(C)C3O)cc2)cc1` (centres unmarked) [Compound 40, 4-[4-pentoxyphenyl]benzyl]: the MIC in assay [3] is 1 µg/mL (≈ 0.542 µM); in assay [1] it was 11 µg/mL (≈ 5.96 µM); with Entercoccus faecalis 276, 2 µg/mL (≈ 1.08 µM); in assay [6], 4 µg/mL (≈ 2.17 µM); in assay [7], 8 µg/mL (≈ 4.34 µM); in assay [8], 2 µg/mL (≈ 1.08 µM). Moreover, the MIC came to 1 µg/mL (≈ 0.542 µM) in [9]; 4 µg/mL (≈ 2.17 µM) in [10]; 2 µg/mL (≈ 1.08 µM) in assay [11]; 4 µg/mL (≈ 2.17 µM) in [12]; 2 µg/mL (≈ 1.08 µM) in assay [13]; 2 µg/mL (≈ 1.08 µM) in assay [14]. In addition, the MIC in [15] was 4 µg/mL (≈ 2.17 µM); in the assay on Entercoccus faecium 180, 1 µg/mL (≈ 0.542 µM); in assay [16], 4 µg/mL (≈ 2.17 µM); against Escherichia coli EC14, above 64 µg/mL; in assay [17] it was 4 µg/mL (≈ 2.17 µM); in assay [18] it was 4 µg/mL (≈ 2.17 µM). The figures for the MIC in [19], in assay [20] and in assay [2] were 0.5 µg/mL (≈ 0.271 µM), at most 0.06 µg/mL and at most 0.06 µg/mL, respectively.
For `CNC(CC(C)C)C(=O)NC1C(=O)NC(CC(N)=O)C(=O)NC2C(=O)NC3C(=O)NC(C(=O)NC(C(=O)O)c4cc(O)cc(O)c4-c4cc3ccc4O)C(OC3CC(C)(N)C(O)C(C)O3)c3ccc(c(Cl)c3)Oc3cc2cc(c3OC2OC(CO)C(O)C(O)C2OC2CC(C)(NCc3ccc(OC4CCCCC4)cc3)C(O)C(C)O2)Oc2ccc(cc2Cl)C1O` (centres unmarked) [Compound 124, 4-cyclohexyloxybenzyl], the MIC in assay [3] was at most 0.06 µg/mL; in assay [1], 1 µg/mL (≈ 0.562 µM); with Entercoccus faecalis 276, at most 0.06 µg/mL; against Pediococcus pentosaceus, 16 µg/mL (≈ 8.99 µM); in assay [4] it was 16 µg/mL (≈ 8.99 µM); in the assay on Lactobacillus confusus it was 16 µg/mL (≈ 8.99 µM). Besides, the MIC against Leuconostoc lactis was 16 µg/mL (≈ 8.99 µM); in assay [5], 64 µg/mL (≈ 35.9 µM); with Pedicoccus acidilacti, 20 µg/mL (≈ 11.2 µM); against Leuconostoc citreum, 64 µg/mL (≈ 35.9 µM).
Take `CN[C@H](CC(C)C)C(=O)N[C@H]1C(=O)N[C@@H](CC(N)=O)C(=O)N[C@H]2C(=O)N[C@H]3C(=O)N[C@H](C(=O)N[C@H](C(=O)O)c4cc(O)cc(O)c4-c4cc3ccc4O)[C@H](O)c3ccc(c(Cl)c3)Oc3cc2cc(c3O[C@@H]2O[C@H](CO)[C@@H](O)[C@H](O)[C@H]2O[C@H]2C[C@](C)(N)[C@H](O)[C@H](C)O2)Oc2ccc(cc2Cl)[C@H]1O` [vancomycin, reference compound]: the MIC in assay [3] was 2 µg/mL (≈ 1.38 µM); in assay [1], 4 µg/mL (≈ 2.76 µM); in the assay with Entercoccus faecalis 276, 1 µg/mL (≈ 0.69 µM); in the assay with Pediococcus pentosaceus, 1024 µg/mL (≈ 707 µM); in [4], 1024 µg/mL (≈ 707 µM); in the assay with Lactobacillus confusus, 1024 µg/mL (≈ 707 µM). Also, the MIC was 1024 µg/mL (≈ 707 µM) in the assay with Leuconostoc lactis, above 1024 µg/mL in assay [5], 891 µg/mL (≈ 615 µM) with Pedicoccus acidilacti and above 1024 µg/mL with Leuconostoc citreum.
